Source: patent US6737383B1, “Herbicidal oxadiazolidines” (priority 1999, dated 2004)

Tests used:
purple nutsedge = assay: Test B pre/postemergence purple nutsedge; type: in vivo, Cyperus rotundus; conditions: for Nutsedge plant response rating: scale of 0 to 10 where 0 is no effect and 10 is complete control
In short: (§1)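 Herbicidal effect was estimated by eye on a ten-point control scale after plants spent twelve to sixteen days in a greenhouse following soil or foliar treatment. Foliar sprays targeted plants at one to four leaves; all doses were formulated in a non-phytotoxic solvent with surfactant.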

blackgrass = assay: Test B pre/postemergence blackgrass; type: in vivo, Alopecurus myosuroides
In short: as §1

sugar beet = assay: Test B pre/postemergence sugar beet; type: in vivo, Beta vulgaris; conditions: for Sugarbeets plant response rating: scale of 0 to 10 where 0 is no effect and 10 is complete control
In short: as §1

wild oat = assay: Test B pre/postemergence wild oat; type: in vivo, Avena fatua; conditions: for Wild oats plant response rating: scale of 0 to 10 where 0 is no effect and 10 is complete control
In short: as §1

morningglory = assay: Test B pre/postemergence morningglory; type: in vivo, Ipomoea hederacea; conditions: for Morningglory plant response rating: scale of 0 to 10 where 0 is no effect and 10 is complete control
In short: as §1

bamyardgrass = assay: Test B flood test barnyardgrass; type: in vivo, Echinochloa crus-galli
In short: (§2)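 Read-out is a visual response score from 0 (no effect) to 10 (complete control), assigned by comparison with untreated controls. Treatment was applied at the 2-leaf stage, and plants stayed in the greenhouse for twelve to sixteen days before scoring.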

crabgrass = assay: Test B pre/postemergence crabgrass; type: in vivo, Digitaria sanguinalis; conditions: for Crabgrass plant response rating: scale of 0 to 10 where 0 is no effect and 10 is complete control
In short: as §1

pigweed = assay: Test B pre/postemergence pigweed; type: in vivo, Amaranthus retroflexus; conditions: for Redroot pigweed plant response rating: scale of 0 to 10 where 0 is no effect and 10 is complete control
In short: as §1

velvetleaf = assay: Test B pre/postemergence velvetleaf; type: in vivo, Abutilon theophrasti; conditions: for Velvetleaf plant response rating: scale of 0 to 10 where 0 is no effect and 10 is complete control
In short: as §1

surinam grass = assay: Test B pre/postemergence surinam grass; type: in vivo, Brachiaria decumbens
In short: as §1

cocklebur = assay: Test B pre/postemergence cocklebur; type: in vivo, Xanthium strumarium; conditions: for Cocklebur plant response rating: scale of 0 to 10 where 0 is no effect and 10 is complete control
In short: as §1

smallflower flatsedge = assay: Test B flood test smallflower flatsedge; type: in vivo, Cyperus difformis
In short: as §2

corn = assay: Test B pre/postemergence corn; type: in vivo, Zea mays; conditions: for Corn plant response rating: scale of 0 to 10 where 0 is no effect and 10 is complete control
In short: as §1

rape = assay: Test B pre/postemergence rape; type: in vivo, Brassica napus; conditions: for Rape plant response rating: scale of 0 to 10 where 0 is no effect and 10 is complete control
In short: as §1

giant foxtail = assay: Test B pre/postemergence giant foxtail; type: in vivo, Setaria faberii; conditions: for Giant foxtail plant response rating: scale of 0 to 10 where 0 is no effect and 10 is complete control
In short: as §1

soybean = assay: Test B pre/postemergence soybean; type: in vivo, Glycine max; conditions: for Soybean plant response rating: scale of 0 to 10 where 0 is no effect and 10 is complete control
In short: as §1

[1] = Postemergence, Rate 125 g/ha, scale 0 to 10, 0 is no effect, 10 is complete control
[2] = Preemergence, Rate 62 g/ha, scale 0 to 10 (0 no effect, 10 complete control)
[3] = Rate 500 g/ha, Postemergence, scale 0 to 10, 0 no effect, 10 complete control
[4] = Preemergence, Rate 250 g/ha, scale of 0 to 10 where 0 is no effect and 10 is complete control
[5] = Preemergence, Rate 500 g/ha, scale of 0 to 10 where 0 is no effect and 10 is complete control
[6] = Rate 62 g/ha, Postemergence, scale of 0 to 10 where 0 is no effect and 10 is complete control
[7] = Rate 250 g/ha, Postemergence, scale of 0 to 10 where 0 is no effect and 10 is complete control
[8] = Postemergence (flood test), Rate 125 g/ha, scale 0 to 10, 0 is no effect, 10 is complete control
[9] = Rate 62 g/ha, Postemergence (flood test species), scale of 0 to 10 where 0 is no effect and 10 is complete control

CC(C)N(C(=O)n1oc(=O)n(C2CCCCCC2)c1=O)c1ccc(F)cc1F [Compound 342]
Plant response rating, Nutsedge (purple nutsedge; [1]): 0 | Plant response rating, Nutsedge (purple nutsedge; [2]): 0 | Nutsedge plant response rating (0 to 10 scale) (purple nutsedge; Preemergence, Rate 125 g/ha): 0 | Nutsedge plant response rating (purple nutsedge; Preemergence, Rate 250 g/ha): 0 | Nutsedge plant response rating (purple nutsedge; Preemergence, Rate 500 g/ha): 0 | Nutsedge plant response rating (purple nutsedge; Rate 62 g/ha, Postemergence): 0 | Plant response rating, Nutsedge (purple nutsedge; [3]): 0 | Plant response rating, Blackgrass (blackgrass; [1]): 0 | Plant response rating, Blackgrass (blackgrass; [2]): 0 | Blackgrass plant response rating (0 to 10 scale) (blackgrass; Preemergence, Rate 125 g/ha): 3 | Blackgrass plant response rating (blackgrass; [4]): 3 | Blackgrass plant response rating (blackgrass; [5]): 7 | Blackgrass plant response rating (blackgrass; [6]): 0 | Plant response rating, Blackgrass (blackgrass; [7]): 2 | Plant response rating, Blackgrass (blackgrass; [3]): 4 | Plant response rating, Sugarbeets (sugar beet; [1]): 0 | Plant response rating, Sugarbeets (sugar beet; [2]): 0 | Sugarbeets plant response rating (0 to 10 scale) (sugar beet; Preemergence, Rate 125 g/ha): 0 | Sugarbeets plant response rating (sugar beet; Preemergence, Rate 250 g/ha): 0 | Sugarbeets plant response rating (sugar beet; Preemergence, Rate 500 g/ha): 0 | Sugarbeets plant response rating (sugar beet; Rate 62 g/ha, Postemergence): 0 | Plant response rating, Sugarbeets (sugar beet; [3]): 0 | Plant response rating, Wild oats (wild oat; [1]): 0 | Plant response rating, Wild oats (wild oat; [2]): 0 | Wild oats plant response rating (0 to 10 scale) (wild oat; Preemergence, Rate 125 g/ha): 0 | Wild oats plant response rating (wild oat; Preemergence, Rate 250 g/ha): 0 | Wild oats plant response rating (wild oat; Preemergence, Rate 500 g/ha): 4 | Wild oats plant response rating (wild oat; Rate 62 g/ha, Postemergence): 0 | Plant response rating, Wild oats (wild oat; [3]): 0 | Plant response rating, Morningglory (morningglory; [1]): 7 | Plant response rating, Morningglory (morningglory; [2]): 0 | Morningglory plant response rating (0 to 10 scale) (morningglory; Preemergence, Rate 125 g/ha): 0 | Morningglory plant response rating (morningglory; Preemergence, Rate 250 g/ha): 0 | Morningglory plant response rating (morningglory; Preemergence, Rate 500 g/ha): 0 | Morningglory plant response rating (morningglory; Rate 62 g/ha, Postemergence): 7 | Plant response rating, Morningglory (morningglory; [3]): 9 | Plant response rating, Barnyardgrass (bamyardgrass; [8]): 2 | Barnyardgrass plant response rating (bamyardgrass; [9]): 0 | Plant response rating, Barnyardgrass (bamyardgrass; Rate 250 g/ha, Postemergence (flood test species), scale of 0 to 10 where 0 is no effect and 10 is complete control): 9 | Plant response rating, Barnyardgrass (bamyardgrass; Rate 500 g/ha, listed under Postemergence (flood test species), scale 0 to 10, 0 no effect, 10 complete control): 9 | Plant response rating, Crabgrass (crabgrass; [1]): 0 | Plant response rating, Crabgrass (crabgrass; [2]): 4 | Crabgrass plant response rating (0 to 10 scale) (crabgrass; Preemergence, Rate 125 g/ha): 6 | Crabgrass plant response rating (crabgrass; Preemergence, Rate 250 g/ha): 9 | Crabgrass plant response rating (crabgrass; Preemergence, Rate 500 g/ha): 9 | Crabgrass plant response rating (crabgrass; Rate 62 g/ha, Postemergence): 0 | Plant response rating, Crabgrass (crabgrass; [3]): 3 | Plant response rating, Redroot pigweed (pigweed; [1]): 2 | Plant response rating, Redroot pigweed (pigweed; [2]): 0 | Redroot pigweed plant response rating (0 to 10 scale) (pigweed; Preemergence, Rate 125 g/ha): 0 | Redroot pigweed plant response rating (pigweed; Preemergence, Rate 250 g/ha): 0 | Redroot pigweed plant response rating (pigweed; Preemergence, Rate 500 g/ha): 0 | Redroot pigweed plant response rating (pigweed; Rate 62 g/ha, Postemergence): 2 | Plant response rating, Redroot pigweed (pigweed; [3]): 8 | Plant response rating, Velvetleaf (velvetleaf; [1]): 0 | Plant response rating, Velvetleaf (velvetleaf; [2]): 0 | Velvetleaf plant response rating (0 to 10 scale) (velvetleaf; Preemergence, Rate 125 g/ha): 0 | Velvetleaf plant response rating (velvetleaf; Preemergence, Rate 250 g/ha): 0 | Velvetleaf plant response rating (velvetleaf; Preemergence, Rate 500 g/ha): 0 | Velvetleaf plant response rating (velvetleaf; Rate 62 g/ha, Postemergence): 0 | Plant response rating, Velvetleaf (velvetleaf; [3]): 0 | Plant response rating, B. signalgrass (surinam grass; [1]): 0 | Plant response rating, B. signalgrass (surinam grass; [2]): 0 | B. signalgrass plant response rating (0 to 10 scale, 0 is no effect, 10 is complete control) (surinam grass; Preemergence, Rate 125 g/ha): 0 | B. signalgrass plant response rating (surinam grass; [4]): 2 | B. signalgrass plant response rating (surinam grass; [5]): 6 | B. signalgrass plant response rating (surinam grass; [6]): 0 | Plant response rating, B. signalgrass (surinam grass; [7]): 0 | Plant response rating, B. signalgrass (surinam grass; [3]): 1 | Plant response rating, Cocklebur (cocklebur; [1]): 0 | Plant response rating, Cocklebur (cocklebur; [2]): 0 | Cocklebur plant response rating (0 to 10 scale) (cocklebur; Preemergence, Rate 125 g/ha): 0 | Cocklebur plant response rating (cocklebur; Preemergence, Rate 500 g/ha): 0 | Cocklebur plant response rating (cocklebur; Rate 62 g/ha, Postemergence): 0 | Plant response rating, Cocklebur (cocklebur; [3]): 0 | Plant response rating, S. Flatsedge (smallflower flatsedge; [8]): 4 | S. Flatsedge plant response rating (smallflower flatsedge; [9]): 0 | Plant response rating, Corn (corn; [1]): 0 | Plant response rating, Corn (corn; [2]): 0 | Corn plant response rating (0 to 10 scale) (corn; Preemergence, Rate 125 g/ha): 0 | Corn plant response rating (corn; Preemergence, Rate 250 g/ha): 0 | Corn plant response rating (corn; Preemergence, Rate 500 g/ha): 0 | Corn plant response rating (corn; Rate 62 g/ha, Postemergence): 0 | Plant response rating, Corn (corn; [3]): 0 | Plant response rating, Rape (rape; [1]): 0 | Plant response rating, Rape (rape; [2]): 0 | Rape plant response rating (0 to 10 scale) (rape; Preemergence, Rate 125 g/ha): 0 | Rape plant response rating (rape; Preemergence, Rate 250 g/ha): 0 | Rape plant response rating (rape; Preemergence, Rate 500 g/ha): 0 | Rape plant response rating (rape; Rate 62 g/ha, Postemergence): 0 | Plant response rating, Rape (rape; [3]): 4 | Plant response rating, Giant foxtail (giant foxtail; [1]): 0 | Plant response rating, Giant foxtail (giant foxtail; [2]): 8 | Giant foxtail plant response rating (0 to 10 scale) (giant foxtail; Preemergence, Rate 125 g/ha): 9 | Giant foxtail plant response rating (giant foxtail; Preemergence, Rate 250 g/ha): 10 | Giant foxtail plant response rating (giant foxtail; Preemergence, Rate 500 g/ha): 10 | Giant foxtail plant response rating (giant foxtail; Rate 62 g/ha, Postemergence): 0 | Plant response rating, Giant foxtail (giant foxtail; [3]): 7 | Plant response rating, Soybean (soybean; [1]): 5 | Plant response rating, Soybean (soybean; [2]): 0 | Soybean plant response rating (0 to 10 scale) (soybean; Preemergence, Rate 125 g/ha): 0 | Soybean plant response rating (soybean; Preemergence, Rate 250 g/ha): 0 | Soybean plant response rating (soybean; Preemergence, Rate 500 g/ha): 0 | Soybean plant response rating (soybean; Rate 62 g/ha, Postemergence): 3 | Plant response rating, Soybean (soybean; [3]): 7
